Among the data in EP4600243A2, “NOVEL BICYCLIC HETEROCYCLYL COMPOUNDS AND USE THEREOF” (Jeil Pharmaceutical Co., Ltd., priority 2022, dated 2024) are inhibition and IC50 values, retold here.

Broadly, the inhibition is how much of the control response was suppressed. The IC50 is the concentration that inhibits the measured activity by half.

T2 sequence (P00533 25-1210): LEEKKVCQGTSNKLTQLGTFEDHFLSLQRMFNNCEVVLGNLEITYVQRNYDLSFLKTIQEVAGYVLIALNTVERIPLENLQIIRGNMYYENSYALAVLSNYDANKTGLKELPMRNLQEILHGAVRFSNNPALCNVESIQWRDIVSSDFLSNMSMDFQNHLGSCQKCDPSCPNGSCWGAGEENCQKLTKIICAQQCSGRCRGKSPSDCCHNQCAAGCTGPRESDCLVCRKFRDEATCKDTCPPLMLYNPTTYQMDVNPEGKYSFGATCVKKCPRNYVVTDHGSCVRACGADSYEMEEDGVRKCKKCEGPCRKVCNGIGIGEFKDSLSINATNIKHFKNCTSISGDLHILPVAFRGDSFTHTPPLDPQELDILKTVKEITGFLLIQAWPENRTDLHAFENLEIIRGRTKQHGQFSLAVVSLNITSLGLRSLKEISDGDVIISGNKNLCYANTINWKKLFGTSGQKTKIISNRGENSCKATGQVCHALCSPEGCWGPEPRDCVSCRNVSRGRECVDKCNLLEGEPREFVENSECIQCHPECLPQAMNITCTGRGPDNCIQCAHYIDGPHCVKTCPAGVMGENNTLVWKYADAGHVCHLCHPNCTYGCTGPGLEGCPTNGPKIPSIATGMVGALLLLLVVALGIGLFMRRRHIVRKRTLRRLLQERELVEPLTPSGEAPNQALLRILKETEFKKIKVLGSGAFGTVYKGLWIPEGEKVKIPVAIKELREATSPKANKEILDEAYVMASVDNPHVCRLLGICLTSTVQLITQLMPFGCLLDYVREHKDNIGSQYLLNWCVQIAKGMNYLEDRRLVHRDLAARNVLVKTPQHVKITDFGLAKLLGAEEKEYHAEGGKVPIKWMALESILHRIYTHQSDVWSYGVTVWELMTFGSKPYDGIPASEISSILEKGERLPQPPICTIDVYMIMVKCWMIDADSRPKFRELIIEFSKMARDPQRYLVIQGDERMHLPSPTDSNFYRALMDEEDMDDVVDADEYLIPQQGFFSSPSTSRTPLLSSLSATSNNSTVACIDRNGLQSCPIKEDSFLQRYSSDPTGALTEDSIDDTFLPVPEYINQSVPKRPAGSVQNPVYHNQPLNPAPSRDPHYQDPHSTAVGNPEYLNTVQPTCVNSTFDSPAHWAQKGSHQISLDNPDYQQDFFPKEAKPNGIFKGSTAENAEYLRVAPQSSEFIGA

For the first assay, the target named is T1, protein-protein interaction between SOS1 and KRAS G12C (Homo sapiens, UniProt Q07889).
T1 construct: purchased Cisbio 64KRASG12PEG
T1 sequence (Q07889 1-1333): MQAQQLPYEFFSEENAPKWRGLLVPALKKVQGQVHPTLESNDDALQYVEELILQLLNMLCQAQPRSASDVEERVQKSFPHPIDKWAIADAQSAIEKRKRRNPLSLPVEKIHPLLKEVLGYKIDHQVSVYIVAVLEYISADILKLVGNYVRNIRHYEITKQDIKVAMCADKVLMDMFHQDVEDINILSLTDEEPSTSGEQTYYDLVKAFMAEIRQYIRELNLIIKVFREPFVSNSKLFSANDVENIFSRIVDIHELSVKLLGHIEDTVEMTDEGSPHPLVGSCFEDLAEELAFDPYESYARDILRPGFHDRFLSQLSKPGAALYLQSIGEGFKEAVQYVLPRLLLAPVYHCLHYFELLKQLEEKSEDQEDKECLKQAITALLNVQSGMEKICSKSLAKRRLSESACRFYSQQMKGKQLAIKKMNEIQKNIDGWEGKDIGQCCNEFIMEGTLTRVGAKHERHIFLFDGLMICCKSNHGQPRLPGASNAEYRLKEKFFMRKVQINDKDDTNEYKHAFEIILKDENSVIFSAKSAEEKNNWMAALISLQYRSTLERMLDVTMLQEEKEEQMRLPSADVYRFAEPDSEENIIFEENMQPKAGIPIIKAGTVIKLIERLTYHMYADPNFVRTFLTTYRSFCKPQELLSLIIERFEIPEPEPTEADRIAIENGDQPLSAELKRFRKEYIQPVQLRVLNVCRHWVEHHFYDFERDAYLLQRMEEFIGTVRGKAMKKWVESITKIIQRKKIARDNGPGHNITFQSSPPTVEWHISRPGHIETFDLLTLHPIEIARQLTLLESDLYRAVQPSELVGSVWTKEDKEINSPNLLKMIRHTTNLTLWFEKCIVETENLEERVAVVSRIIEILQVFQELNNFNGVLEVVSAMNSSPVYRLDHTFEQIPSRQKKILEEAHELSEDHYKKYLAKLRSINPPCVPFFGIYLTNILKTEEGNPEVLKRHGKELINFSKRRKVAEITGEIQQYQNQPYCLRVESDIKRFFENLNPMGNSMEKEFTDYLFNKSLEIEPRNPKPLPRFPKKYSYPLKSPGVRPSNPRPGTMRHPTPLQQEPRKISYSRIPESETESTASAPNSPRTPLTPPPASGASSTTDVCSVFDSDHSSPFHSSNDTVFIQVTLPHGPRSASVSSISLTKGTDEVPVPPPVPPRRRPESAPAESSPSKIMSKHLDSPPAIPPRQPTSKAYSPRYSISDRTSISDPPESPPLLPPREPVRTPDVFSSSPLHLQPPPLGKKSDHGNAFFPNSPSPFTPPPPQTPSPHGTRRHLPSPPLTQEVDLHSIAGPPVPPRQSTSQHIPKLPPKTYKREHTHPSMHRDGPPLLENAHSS
Briefly: KRAS::SOS1 HTRF binding analysis (KRAS G12C/SOS1 binding kit). To be noted: compound at 0.1 uM. As to the method: 1-1. KRAS::SOS1 HTRF binding analysis
An SOS1 inhibitory ability of the example compounds of the present invention was confirmed by identifying the effect of inhibiting a protein-protein interaction between SOS1 and KRAS G12C of the compounds according to examples of the present invention.
Specifically, a KRAS G12C/SOS1 binding kit (64KRASG12PEG, Cisbio, France) was purchased and used. 2 µℓ of Tag1-KRAS G12C and 2 µℓ of GTP were premixed and dispensed 4 µl each into a 384 well plate (6007290, PerkinElmer, USA). 2 µℓ of the compound and 4 µℓ of Tag2-SOS1 were placed and then 10 µℓ of premixed Anti-Tag1 XL665 antibody and Anti-Tag2 Tb cryptate antibody was dispensed to each well. The plates were sealed and allowed to react at room temperature for one hour and 40 minutes, and then 665 nm wavelength and 620 nm wavelength were measured using a HTRF® compatible reader (Synergy H4, BioTeK, USA), and the ratio of receptor and donor emission signals for each well was calculated as 665 nm/620 nm×10^4.
(+++: more than 70 to 100% inhibition, ++: more than 40 to 70% inhibition, +: 0 to 40% inhibition) [Table 4]
Background: Time-resolved FRET reads energy transfer from a long-lived donor to a nearby acceptor.
For `C[C@@H](Nc1cnnc2ccc(C3=CCNCC3)cc12)c1cccc(C(F)F)c1F` [Example 2, (R)-N-(1-(3-(difluoromethyl)-2-fluorophenyl)ethyl)-6-(1,2,3,6-tetrahydropyridin-4-yl)cinnolin-4-amine], the inhibition at 0.1 µM fell in the range of 40 to 70%.
In the case of `C[C@@H](Nc1cnnc2ccc(C3=CCN(C(=O)C4CC4)CC3)cc12)c1cccc(C(F)F)c1F` [Example 61, (R)-cyclopropyl(4-(4-(1-(3-(difluoromethyl)-2-fluorophenyl)ethylamino)cinnolin-6-yl)-5,6-dihydropyridin-1(2H)-yl)methanone], the inhibition at 0.1 µM is 0 to 40%.
Regarding `C[C@@H](Nc1cnnc2ccc(N3CCN(C(=O)C4CC4)CC3)cc12)c1cccc(C(F)F)c1F` [Example 62, (R)-cyclopropyl(4-(4-(1-(3-(difluoromethyl)-2-fluorophenyl)ethylamino)cinnolin-6-yl)piperazin-1-yl)methanone], the inhibition at 0.1 µM lay within 40 to 70%.
For `COC1(C)CN(c2ccc3nncc(N[C@H](C)c4cccc(C(F)F)c4F)c3c2)C1` [Example 33, (R)-N-(1-(3-(difluoromethyl)-2-fluorophenyl)ethyl)-6-(3-methoxy-3-methylazetidin-1-yl)cinnolin-4-amine], the inhibition at 0.1 µM lay within 0 to 40%.
On the same count and under the same terms, under `C[C@@H](Nc1cnnc2ccc(N3CCN(C(=O)[C@@H]4CCOC4)CC3)cc12)c1cccc(C(F)F)c1F` [Example 64, (4-(4-((R)-1-(3-(difluoromethyl)-2-fluorophenyl)ethylamino)cinnolin-6-yl)piperazin-1-yl)((R)-tetrahydrofuran-3-yl)methanone] stands 70 to 100%.
For `C[C@@H](Nc1cnnc2ccc(N3CC(C)(O)C3)cc12)c1cccc(C(F)F)c1` [Example 45, (R)-1-(4-((1-(3-(difluoromethyl)phenyl)ethyl)amino)cinnolin-6-yl)-3-methylazetidin-3-ol], the inhibition at 0.1 µM is 0 to 40%.
Still for that read-out and setting: under `C[C@@H](Nc1cnnc2ccc(C3=CCN(C)CC3)cc12)c1cccc(C#N)c1` [Example 53, (R)-3-(1-(6-(1-methyl-1,2,3,6-tetrahydropyridin-4-yl)cinnolin-4-ylamino)ethyl)benzonitrile] stands 0 to 40%; under `C[C@@H](Nc1cnnc2ccc(N3CC[C@@H](F)C3)cc12)c1cccc(C(F)F)c1F` [Example 25, N-((R)-1-(3-(difluoromethyl)-2-fluorophenyl)ethyl)-6-((R)-3-fluoropyrrolidin-1-yl)cinnolin-4-amine], 0 to 40%; under `C[C@@H](Nc1cnnc2ccc(N3CCN(C(=O)[C@H]4CCOC4)CC3)cc12)c1cccc(C(F)F)c1F` [Example 65, (4-(4-((R)-1-(3-(difluoromethyl)-2-fluorophenyl)ethylamino)cinnolin-6-yl)piperazin-1-yl)((S)-tetrahydrofuran-3-yl)methanone], 40 to 70%.
`C[C@@H](Nc1cnnc2ccc(N3CCN(C)CC3)cc12)c1cccc(C(F)F)c1F` [Example 5, (R)-N-(1-(3-(difluoromethyl)-2-fluorophenyl)ethyl)-6-(4-methylpiperazin-1-yl)cinnolin-4-amine]: the inhibition at 0.1 µM lay within 40 to 70%.
Still for that read-out and setting: as for `C[C@@H](Nc1cnnc2ccc(C3=CCN(C)CC3)cc12)c1cccc(C(F)F)c1F` [Example 3, (R)-N-(1-(3-(difluoromethyl)-2-fluorophenyl)ethyl)-6-(1-methyl-1,2,3,6-tetrahydropyridin-4-yl)cinnolin-4-amine], the figure is 70 to 100%.
On the same count and under the same terms, as for `C[C@@H](Nc1cnnc2ccc(N3CC4CC(C3)O4)cc12)c1cc(O)cc(C(F)F)c1` [Example 55, 3-((1R)-1-((6-(6-oxa-3-azabicyclo[3.1.1]heptan-3-yl)cinnolin-4-yl)amino)ethyl)-5-(difluoromethyl)phenol], the figure is 0 to 40%.
Same read-out and setting: under `C[C@H]1CN(c2ccc3nncc(N[C@H](C)c4cccc(C(F)F)c4F)c3c2)CCO1` [Example 59, N-((R)-1-(3-(difluoromethyl)-2-fluorophenyl)ethyl)-6-((S)-2-methylmorpholino)cinnolin-4-amine] stands 0 to 40%.
`C[C@@H](Nc1cnnc2ccc(N3CCC(C)(O)CC3)cc12)c1cccc(C(F)F)c1F` [Example 19, (R)-1-(4-((1-(3-(difluoromethyl)-2-fluorophenyl)ethyl)amino)cinnolin-6-yl)-4-methylpiperidin-4-ol]: the inhibition at 0.1 µM is 40 to 70%.
`C[C@@H](Nc1cnnc2ccc(N3CC4(CN(C)C4)C3)cc12)c1cccc(C(F)F)c1F` [Example 7, (R)-N-(1-(3-(difluoromethyl)-2-fluorophenyl)ethyl)-6-(6-methyl-2,6-diazaspiro[3.3]heptan-2-yl)cinnolin-4-amine]: the inhibition at 0.1 µM was in the range of 70 to 100%.
For `COC1CCN(c2ccc3nncc(N[C@H](C)c4cccc(C(F)F)c4F)c3c2)CC1` [Example 22, (R)-N-(1-(3-(difluoromethyl)-2-fluorophenyl)ethyl)-6-(4-methoxypiperidin-1-yl)cinnolin-4-amine], the inhibition at 0.1 µM lay in the range of 0 to 40%.

Another assay addresses T2, EGFR kinase (Homo sapiens, UniProt P00533).
T2 construct: purchased Promega Corporation V3831
Briefly: EGFR kinase inhibitory analysis (ADP-Glo enzyme analysis system). The settings on record: ADP-Glo luminescence. It counts as biochemical. As to the method:
1-2. EGFR kinase inhibitory analysis
Specifically, an ADP-Glo™ enzyme analysis system (V3831, Promega Corporation, USA) was purchased and used. […] The ADP-Glo™ reagent was added in an amount of 5 µℓ per well and allowed to react at room temperature for 40 minutes to stop the EGFR kinase reaction and to remove unused ATP. 10 µℓ of kinase detection reagent (phosphorylase detection reagent) was added and reacted at room temperature for 30 minutes to convert ADP to ATP and show ATP using luciferase and luciferin. Detection was performed using luminescence of an ELISA reader (Synergy H4, BioTek, USA).
On to `C[C@@H](Nc1cnnc2ccc(C3=CCNCC3)cc12)c1cccc(C(F)F)c1F` [Example 2, (R)-N-(1-(3-(difluoromethyl)-2-fluorophenyl)ethyl)-6-(1,2,3,6-tetrahydropyridin-4-yl)cinnolin-4-amine], for which the IC50 was above 10 µM.
On the same count and under the same terms, under `C[C@@H](Nc1cnnc2ccc(N3CCN(C)CC3)cc12)c1cccc(C(F)F)c1F` [Example 5, (R)-N-(1-(3-(difluoromethyl)-2-fluorophenyl)ethyl)-6-(4-methylpiperazin-1-yl)cinnolin-4-amine] stands above 10 µM.
